# Experimental data published in patent US5547940A, “Method for stimulating proliferation of colon cells using POMC76-103” (Ludwig Institute for Cancer Research, priority 1994, dated 1996).
# Where “and” joins values, the source holds several entries; their conditions need not be identical. Identical values can stand only once. Like-named read-outs stand apart in the source and are kept apart here. Peptide text beside a SMILES is read from it.
# Tests used:
# LIM 1215 cells [1] = system: LIM 1215 cells
# Source text: The material was synthesized, using art recognized techniques, and was then used in a mitogenic assay on LIM 1215 cells, following Nice et al., J. Biol. Chem. 266: 14425-14430 (1991), which is incorporated by reference in its entirety.
# colonic crypt cells = assay: Growth factors together with LIM 2537 conditioned medium on colonic crypt cells (synergism); format: cell-based; settings: tested on murine colonic crypt cells
# Experimental: In another set of experiments, human colonic crypt cells were tested with conditioned medium from LIM 2537, together with different growth factors.
# LIM 1215 cells [2] = assay: Colony formation of LIM 1215 cells in semi-solid agar; format: cell-based, human; settings: rhEGF 10 ng/ml alone
# Experimental: Colony formation using various factors was studied. Cells of cell line LIM 1215 were cloned in semi-solid agar (0.3%) following Whitehead et al., Int. J. Canc. 46:858-863 (1990). Briefly, the cells were trypsinized and resuspended in RPMI 1640 plus 5% FCS. Cells in the suspension were counted and then resuspended in a mixture of 0.3% agar in RPMI 1640 plus 10% FCS (40° C.), at a concentration of 10^4 cells per ml. The mixture was plated in 1.5 volumes in 35 mm^2 dishes, and allowed to set. Plates were then incubated at 37° C. in 5% CO2 and 100% humidity for 14 days. A solution of 0.1% crystal violet was aded to the plates, and colonies of more than 40 cells were counted.
# Conditioned medium was prepared by incubating confluent monolayers of colon carcinoma cell lines with fresh RPMI 1640 plus 5% FCS for 48 hours. Medium was then removed, sterilized by filtration, and added to the agar plates at a final concentration of 10% (v/v). […] See Whitehead, supra.
# The effect of the POMC76-103, alone and combination with epidermal growth factor (EGF) was investigated. The peptide and recombinant human EGF ("rhEGF") were tested alone, and combined, in colony formation assays as described supra.
compound,measurement,setting,value
CSCC[C@H](NC(=O)[C@@H](NC(=O)[C@H](Cc1ccc(O)cc1)NC(=O)[C@@H](N)CCCCN)C(C)C)C(=O)NCC(=O)N[C@@H](Cc1c[nH]cn1)C(=O)N[C@@H](Cc1ccccc1)C(=O)N[C@@H](CCCNC(=N)N)C(=O)N[C@@H](Cc1c[nH]c2ccccc12)C(=O)N[C@@H](CC(=O)O)C(=O)N[C@@H](CCCNC(=N)N)C(=O)N[C@@H](Cc1ccccc1)C(=O)NCC(=O)N[C@@H](CCCNC(=N)N)C(=O)N[C@@H](CCCNC(=N)N)C(=O)N[C@@H](CC(N)=O)C(=O)NCC(=O)N[C@@H](CO)C(=O)N[C@@H](CO)C(=O)N[C@@H](CO)C(=O)N[C@@H](CO)C(=O)NCC(=O)N[C@H](C(=O)NCC(=O)NCC(=O)N[C@@H](C)C(=O)N[C@@H](C)C(=O)N[C@@H](CCC(N)=O)C(=O)O)C(C)C [POMC76-103] (H-KYVMGHFRWDRFGRRNGSSSSGVGGAAQ-OH),EC50,LIM 1215 cells [1],~0.075 nM
EGF: epidermal growth factor,stimulation index,"LIM 1215 cells [1]; LIM 1215 cells, FIGS. 16A/16B",8 fold
same,EC50,"LIM 1215 cells [1]; mitogenic assay, LIM 1215 cells",0.05 nM
same,synergism with the LIM 2537 conditioned medium,colonic crypt cells,None of these factors showed any synergism
IL-6: interleukin 6,synergism with the LIM 2537 conditioned medium,colonic crypt cells,None of these factors showed any synergism
PDGF,synergism with the LIM 2537 conditioned medium,colonic crypt cells,None of these factors showed any synergism
rhEGF: recombinant human EGF,"LIM 1215 Colony Stimulating Activity, Colonies",LIM 1215 cells [2],300 and 320
